This is an account of results in patent publication US8163804B2 (priority 2005, dated 2012).

For series [1], the system named is Rice Blast (Pyricularia oryzae). Type of series: in vivo.
The test system of series [2] is Rice Striped Stem Borer (Chilo suppressalis).
Series [3] concerns 2-spotted Spider Mite (Tetranychus urticae). Nature of the series: Insecticidal test on 2-spotted spider mite, kidney bean leaf disc with eggs, hatchability of larvae after 6 days. The class given is in vivo. The following applies: 6 days after spraying. The procedure:
Insecticidal Test on 2-spotted Spider Mite (Tetranychus urticae)
A plastic cup having a diameter of 8 cm was filled with water and covered by a lid with a hole having a diameter of 1 cm. Absorbent cotton was put on the top of the lid and dropped into water from the lid such that the absorbent cotton was always in a wet state due to a capillary phenomenon. A leaf disc having a diameter of 2 cm was prepared with primary leaves of kidney beans (cultivar: Green top) and placed on the aforementioned absorbent cotton. 4 adult female insects of Tetranychus urticae were inoculated thereon. Next day, the adult female insects were removed, and then the number of insect egg was examined. A liquid chemical which was prepared to the prescribed concentration was sprayed by using a vertical sprayer. After spraying, the resulting cup was allowed to stand in an isothermal chamber maintained at 25 degree centigrade. After 6 days from spraying, the number of hatched larvae that survived on the leaf disc was examined and the hatchability of larvae was calculated (two replications of one concentration per chemical).

The test system of series [4] is Small Brown Planthopper (Laodelphax striatellus). Briefly: Insecticidal test on small brown planthopper, sprayed rice seedlings, mortality after 6 days. The class given is in vivo. On the procedure:
Insecticidal Test on Small Brown Planthopper (Laodelphax striatellus)
A liquid chemical which was diluted and prepared to the prescribed concentration was sprayed on rice seedlings (cultivar: koshihikari), air-dried, and then 10 three-stage insects of Laodelphax striatellus were put into a glass test tube having a diameter of 3 cm and a height of 10 cm along with the seedlings. The test tube was cotton plugged. After 6 days from the treatment, the number of surviving insects was examined and the mortality was calculated (two replications of 10 insects per plot).

Series [5] relates to Green Peach Aphid (Myzus persicae). The class given is in vivo.
In series [6] the test system is Resistant Cotton Melon Aphid (Aphis gossypii). Type of series: in vivo.
Series [7] deals with Tiger Moth (Trichoplusia ni). Nature of the series: Insecticidal test on tiger moth, cabbage leaf dip, mortality after 6 days. Type of series: in vivo. To be noted: 6 days after treatment. On the procedure:
Insecticidal Test on Tiger Moth (Trichoplusia ni)
Cut leaves of cabbages (cultivar: shiki-kaku) were immersed in a liquid chemical which was diluted and prepared to the prescribed concentration for 30 seconds, air-dried, and then put into a plastic vessel having a diameter of 9 cm. Each of 10 second-stage insects of Trichoplusia ni was inoculated and the resulting vessel was allowed to stand in an isothermal chamber maintained at 25 degree centigrade. After 6 days from the treatment, the number of surviving insects was examined and the mortality was calculated (two replications of 10 insects per plot).

The test system of series [8] is Common Straight Swift Butterfly (Parnara guttata). Briefly: Control test on common straight swift butterfly of paddy rice, powder spray, number of insects after 20 days (Test Example 9). Type of series: in vivo. The following applies: 20 days after spraying. The text has this: (§1) Control Test on Common Straight Swift Butterfly (Parnara guttata) and Sheath Blight (Rhizoctonia solani) of Paddy Rice
(§2) A powder of a prescribed amount was sprayed on rice (cultivar: koshihikari) after 70 days from the transplantation (middle of May) Leaves on which Parnara guttata was parasitic before spraying were eliminated. After 20 days from spraying, the number of insects was examined for 100 stumps in each plot. Furthermore, 7 days before spraying, Rhizoctonia solani cultured on a bran medium was inoculated into the base of the plant. After 30 days from spraying, the number of infected stumps was examined for 100 stumps in each plot and the rate of infected stumps was calculated. In the Table, gai represents the amount of active ingredients (g).

Series [9] deals with Sheath Blight (Rhizoctonia solani). Nature of the series: Control test on sheath blight of paddy rice, powder spray, rate of infected stumps after 30 days. To be noted: 30 days after spraying. The class given is in vivo.
Description: as §1, §2

[10] abbreviates: Laodelphax striatellus, 144 h, 25 ppm, sprayed rice seedlings, 6 days after treatment.
[11] abbreviates: 3 ppm, foliar spray on eggplant, 5 days after spraying.
[12] abbreviates: 3 ppm, foliar spray on cucumber, 5 days after spraying.
Where [13] appears, read: 3 ppm, sprayed rice seedlings, 6 days after treatment.
Setting [14] is: 100 ppm, foliar spray on eggplant, 5 days after spraying.
Setting [15] is: 100 ppm, foliar spray on cucumber, 5 days after spraying.
[16] abbreviates: 250 ppm, foliar spray on eggplant, 5 days after spraying.
Setting [17] is: 250 ppm, foliar spray on cucumber, 5 days after spraying.

Read-outs that look alike come from different tables or passages of the source.

Take `C[C@@H](NC(=O)C(C#N)C(C)(C)C)c1ccc(Cl)cc1Cl` (some centres unmarked) [diclocymet]: the “Pyricularia oryzae Control value” in [1] (1.5 gai/box) was 95. For the same compound, the “Chilo suppressalis Mortality (%)” value in [2] (1.5 gai/box) amounted to 0%.

Turning to `COc1ccc(-c2ccccc2)cc1NNC(=O)OC(C)C` [bifenazate], in [3] (5 ppm), the “Hatchability of larvae (%)” value is listed as 60%.

In series [4] (Laodelphax striatellus, 144 h), `COP(=S)(OC)Oc1ccc([N+](=O)[O-])c(C)c1` [fenitrothion] came in with a mortality at 100 ppm of 85%.

`CC(C)N1C(=O)N(c2ccccc2)CS/C1=N\C(C)(C)C` [buprofezin]: in series [4] (setting [10]), the mortality at 25 ppm was determined as 95%.

Turning to `CCOc1cc(C(C)(C)C)ccc1C1COC(c2c(F)cccc2F)=N1` (centres unmarked) [etoxazol], in series [3] (0.1 ppm), the “Hatchability of larvae (%)” value came out at 33%.

As for `Cc1cc(C(F)(C(F)(F)F)C(F)(F)F)cc(C)c1NC(=O)c1cccc(N(C)C(=O)c2ccc(C#N)cc2)c1F` [Compound 1217], the “Control rate (%)” value in [5] (setting [11]) is 21%; in series [6] (setting [12]), 15%. Further, the entries for the “Mortality (%)” value in series [4] (setting [13]) and in [7] (0.5 ppm) were 15% and 65%, respectively. Further, the “Hatchability of larvae (%)” value in [3] (50 ppm) was found to be 74%. The “Pyricularia oryzae Control value” in series [1] (in vivo) is on record as 7. Further, the “Chilo suppressalis Mortality (%)” value in [2] (5 gai/box) is reported as 90%.

As for `N#CCNC(=O)c1cnccc1C(F)(F)F` [flonicamid], the “Control rate (%)” value in [5] (setting [14]) and in series [6] (setting [15]) was 97% throughout. The “Mortality (%)” value in series [4] (20 ppm, sprayed rice seedlings, 6 days after treatment) is 95%.

`O=C(Nc1ccccc1)N(Cc1ccc(Cl)cc1)C1CCCC1` [pencycuron]: the “Number of insects (number/100 stumps)” value in [8] (60 gai/10a) amounted to 159 number/100 stumps. The “Rate of infected stumps (%)” value in series [9] (60 gai/10a) is given as 1%.

For the compound `Cc1nn(C)c(Cl)c1C(=O)Nc1cccc2c1C(C)OC2(C)C` (centres unmarked) [furametpyr], the “Number of insects (number/100 stumps)” value in series [8] (20 gai/10a) is on record as 161 number/100 stumps. Further, in [9] (20 gai/10a), the “Rate of infected stumps (%)” value is listed as 2%.

Regarding `CC(C)([CH2][Sn]([CH2]C(C)(C)c1ccccc1)([CH2]C(C)(C)c1ccccc1)[O][Sn]([CH2]C(C)(C)c1ccccc1)([CH2]C(C)(C)c1ccccc1)[CH2]C(C)(C)c1ccccc1)c1ccccc1` [fenbutatin oxide], the “Hatchability of larvae (%)” value in [3] (25 ppm) is reported as 42%.

Consider `CC1=NNC(=O)N(/N=C/c2cccnc2)C1` [pymetrozine], for which the entries for the “Control rate (%)” value in series [5] (setting [14]) and in [6] (setting [15]) were 96% and 95%, respectively. This compound returned a mortality at 25 ppm in [4] (setting [10]) of 95%.

`CNC(=O)ON=C(C)SC` [methomyl]: the “Control rate (%)” value in series [5] (setting [16]) is recorded as 96%; in series [6] (setting [17]) it was 10%.

With `CC(C)OC(=O)C(C(=O)OC(C)C)=C1SCCS1` [Isoprothiolane], in series [1] (6 gai/box), the “Pyricularia oryzae Control value” came out at 92. Further, in [2] (6 gai/box), the “Chilo suppressalis Mortality (%)” value is 0%.

Turning to spinosad, the “Mortality (%)” value in series [7] (0.1 ppm) is listed as 60%.

For `CN(C(=O)c1ccccc1)c1cccc(C(=O)Nc2c(Br)cc(SC(F)(F)C(F)(F)C(F)(F)F)cc2Br)c1` [Compound 1126], the “Control rate (%)” value is 0% in [5] (setting [11]) and 3% in [6] (setting [12]). Moreover, the “Mortality (%)” value in [4] (setting [13]) is given as 10%; in series [7] (0.5 ppm), 70%. Also, in series [3] (50 ppm), the “Hatchability of larvae (%)” value was found to be 73%.

Turning to `CCOc1ccc(C(C)(C)COCc2cccc(Oc3ccccc3)c2)cc1` [ethofenprox], the “Control rate (%)” value is on record as 98% in [5] (setting [14]) and 75% in series [6] (setting [15]). The “Mortality (%)” value in [4] (25 ppm, sprayed rice seedlings, 6 days after treatment) was found to be 95%; in series [7] (3 ppm), 45%.

Compound `N#Cc1nn(-c2c(Cl)cc(C(F)(F)F)cc2Cl)c(N)c1[S+]([O-])C(F)(F)F` (centres unmarked) [fipronil] yielded a mortality at 0.5 ppm in [7] (Trichoplusia, foliar, 144 h, 0.5 ppm) of 55%.

In the case of `CN(C(=O)c1ccccc1F)c1cccc(C(=O)N(C)c2c(Br)cc(SC(F)(F)C(F)(F)C(F)(F)F)cc2Br)c1` [Compound 1617], the results for the “Control rate (%)” value in [5] (setting [11]) and in series [6] (setting [12]) were 0% and 5%, respectively. The “Mortality (%)” value is 5% in series [4] (setting [13]) and 75% in series [7] (0.5 ppm). Also, in series [3] (50 ppm), the “Hatchability of larvae (%)” value worked out at 78%.

Compound `CCOc1ccc([Si](C)(C)CCCc2ccc(F)c(Oc3ccccc3)c2)cc1` [silafluofen] gave a mortality at 25 ppm in series [4] (setting [10]) of 95%.

For the compound `CC(C)Oc1cccc(NC(=O)c2ccccc2C(F)(F)F)c1` [flutolanil], in series [8] (80 gai/10a), the “Number of insects (number/100 stumps)” value came to 153 number/100 stumps. Moreover, the “Rate of infected stumps (%)” value in [9] (80 gai/10a) is reported as 2%.

For the compound milbemectin, the “Hatchability of larvae (%)” value in series [3] (5 ppm) is on record as 18%.

Regarding `CN(C(=O)c1cccc(NC(=O)c2ccccc2)c1)c1c(Br)cc(SC(F)(F)C(F)(F)C(F)(F)F)cc1Br` [Compound 1480], the “Control rate (%)” value was 7% in series [5] (setting [11]) and 3% in series [6] (setting [12]). The “Mortality (%)” value in series [4] (setting [13]) is recorded as 10%; in series [7] (0.5 ppm), 75%. In addition, the “Hatchability of larvae (%)” value in series [3] (50 ppm) is reported as 85%.

As for `CCC(C)(C)C(=O)OC1=C(c2ccc(Cl)cc2Cl)C(=O)OC12CCCCC2` [spirodiclofen], the “Hatchability of larvae (%)” value in [3] (3 ppm) is listed as 50%.

On to `CCCCCCCCCCCCC1=C(OC(C)=O)C(=O)c2ccccc2C1=O` [acequinocyl], for which, in series [3] (5 ppm), the “Hatchability of larvae (%)” value amounted to 29%.

Consider `Cc1c(Cl)cc(-c2ccc(=O)[nH]n2)cc1Cl` [diclomezine], for which the “Number of insects (number/100 stumps)” value in [8] (48 gai/10a) came out at 167 number/100 stumps. The “Rate of infected stumps (%)” value in [9] (48 gai/10a) is given as 3%.

`Cc1cc(C(F)(C(F)(F)F)C(F)(F)F)cc(C)c1NC(=O)c1cccc(NC(=O)c2cccnc2Cl)c1` [Compound No. 106, N-(2,6-dimethyl-4-heptafluoroisopropyl)phenyl 3-[(2-chloropyridin-3-yl)carbonylamino]benzamide]: in series [1] (in vivo), the “Pyricularia oryzae Control value” came to 5. The “Chilo suppressalis Mortality (%)” value in [2] (5 gai/box) came out at 90%.

In the case of `CNC(=O)/C(=N/OC)c1ccccc1CO/N=C(C)/C(=N/OC)C(/C)=N/OC` [orysastrobin], the “Pyricularia oryzae Control value” in series [1] (3.5 gai/box) stood at 93. In addition, the “Chilo suppressalis Mortality (%)” value in [2] (3.5 gai/box) amounted to 5%.

`C=CCOC1=NS(=O)(=O)c2ccccc21` [probenazole]: the “Pyricularia oryzae Control value” in series [1] (12 gai/box) was 94. For the same compound, the “Chilo suppressalis Mortality (%)” value in series [2] (12 gai/box) came out at 5%.

On to `COP(=O)(NC(C)=O)SC` (centres unmarked) [acephate], for which the “Control rate (%)” value in [5] (setting [16]) amounted to 97%; in series [6] (setting [17]), 0%.

Regarding `Cc1cccc2sc3nncn3c12` [tricyclazole], in [1] (2 gai/box), the “Pyricularia oryzae Control value” is 95. Further, in series [2] (in vivo), the “Chilo suppressalis Mortality (%)” value amounted to 5%.

As to `CC(C)(C)c1ccc(CSc2cnn(C(C)(C)C)c(=O)c2Cl)cc1` [pyridaben], in [3] (2 ppm), the “Hatchability of larvae (%)” value turned out to be 48%.

Turning to `CC[S+]([O-])c1c(C#N)nn(-c2c(Cl)cc(C(F)(F)F)cc2Cl)c1N` (centres unmarked) [ethiprole], the “Control rate (%)” value is given as 98% in [5] (setting [14]) and 96% in series [6] (setting [15]). Besides, the mortality at 25 ppm in series [4] (setting [10]) was determined as 90%.

For `Cc1cc(C(F)(C(F)(F)F)C(F)(F)F)cc(C)c1NC(=O)c1cccc(N(C)C(=O)c2cccc(F)c2)c1F` [Compound 1219], the “Control rate (%)” value was determined as 17% in series [5] (setting [11]) and 15% in [6] (setting [12]). In addition, the “Mortality (%)” value in series [4] (setting [13]) amounted to 10%; in [7] (0.5 ppm), 65%. For the same compound, the “Hatchability of larvae (%)” value in series [3] (50 ppm) was found to be 80%.

Turning to `CN/C(=N/CC1CCOC1)N[N+](=O)[O-]` (centres unmarked) [dinotefuran], the entries for the “Control rate (%)” value in [5] (in vivo) and in series [6] (in vivo) were 99% and 98%, respectively. For the same compound, in [4] (Laodelphax striatellus, 144 h, 5 ppm, sprayed rice seedlings, 6 days after treatment), the mortality at 5 ppm was 95%. Also, the mortality at 3 ppm in series [7] (Trichoplusia, foliar, 144 h, 3 ppm) came to 40%.

Usually mortality stands for the share of the test organisms that died. A high value points to a strong lethal effect.
